Experimental data published in ChEMBL document CHEMBL1201862, “PubChem BioAssay data set” (2004).
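Cells were grown in 96-well plates and exposed to each compound for 48 hours at five concentrations; endpoints were interpolated linearly between bracketing concentrations, or set to the highest concentration if not reached. GI50: concentration for 50% inhibition of growth.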 Calls of active or inactive are those of the source. Cut-off read from the data, not from the text of the source: active = GI50 up to about 1.1 µM and inactive = higher.

Experiments:
Experiment in all cases: DTP human tumour cell line panel, 48 h
A498 = system: A498
COLO 205 = system: COLO 205
HCT-116 = system: HCT-116
HCT-15 = system: HCT-15
HOP-62 = system: HOP-62
HT-29 = system: HT-29
K562 = system: K562
MCF7 = system: MCF7
MDA-MB-435 = system: MDA-MB-435
MOLT-4 = system: MOLT-4
NCI-H460 = system: NCI-H460
NCI-H522 = system: NCI-H522
RXF 393 = system: RXF 393
SF-268 = system: SF-268
SF-295 = system: SF-295
SF-539 = system: SF-539
SNB-19 = system: SNB-19
SR = system: SR
UACC-62 = system: UACC-62
SW-620 = system: SW-620

SMILES | GI50 (A498) | GI50 (COLO 205) | GI50 (HCT-116) | GI50 (HCT-15) | GI50 (HOP-62) | GI50 (HT-29) | GI50 (K562) | GI50 (MCF7) | GI50 (MDA-MB-435) | GI50 (MOLT-4) | GI50 (NCI-H460) | GI50 (NCI-H522) | GI50 (RXF 393) | GI50 (SF-268) | GI50 (SF-295) | GI50 (SF-539) | GI50 (SNB-19) | GI50 (SR) | GI50 (UACC-62) | GI50 (SW-620)
Clc1ccc(CNc2nc(Cl)c3nc[nH]c3n2)cc1Cl | 11.1 µM (inactive) | 22.6 µM (inactive) | 15.9 µM (inactive) | 27 µM | 27.4 µM (inactive) | 26.4 µM (inactive) | 20.3 µM (inactive) | 18 µM (inactive) | 32 µM (inactive) | 33.6 µM (inactive) | 28.2 µM (inactive) | 11.3 µM (inactive) | 30.9 µM (inactive) | 25.4 µM (inactive) | 20 µM (inactive) | 13.5 µM (inactive) | 34 µM (inactive) | 26.5 µM (inactive) | 11.2 µM (inactive) | –
O=C1c2ccccc2-c2[nH]c3cn[nH]c(=O)c3c21 | 33.5 µM (inactive) | 89.5 µM (inactive) | 38.6 µM (inactive) | 82.6 µM | 82 µM (inactive) | > 100 µM (inactive) | 61.2 µM (inactive) | 43.9 µM (inactive) | 48.6 µM (inactive) | > 100 µM (inactive) | 64.9 µM (inactive) | 13.4 µM (inactive) | – | 99.1 µM (inactive) | > 100 µM (inactive) | > 100 µM (inactive) | > 100 µM (inactive) | 45 µM (inactive) | 45.3 µM (inactive) | > 100 µM (inactive)
CO/C=C(/C(=O)OC)c1ccccc1[C@H]1C[C@@H]1c1ccccc1 | 27.9 µM (inactive) | 14 µM (inactive) | 17.4 µM (inactive) | 23.4 µM | 35.2 µM (inactive) | 18.6 µM (inactive) | 26.2 µM (inactive) | 29 µM (inactive) | 17.8 µM (inactive) | 30.1 µM (inactive) | 19.7 µM (inactive) | 12.9 µM (inactive) | 49.3 µM (inactive) | 24.4 µM (inactive) | 23.1 µM (inactive) | 21.2 µM (inactive) | 48.3 µM (inactive) | 14.2 µM (inactive) | 14.9 µM (inactive) | –
COc1ccc(NC(=S)c2ccc(CN3CCCCC3)s2)cc1 | 16.2 µM (inactive) | 16.2 µM (inactive) | 16.9 µM (inactive) | 12.8 µM | 20.6 µM (inactive) | 5.46 µM (inactive) | 12.5 µM (inactive) | 17 µM (inactive) | 19.6 µM (inactive) | 20.1 µM (inactive) | 17.5 µM (inactive) | 14.8 µM (inactive) | – | 18 µM (inactive) | 18.3 µM (inactive) | 43.9 µM (inactive) | 21.3 µM (inactive) | 16.8 µM (inactive) | 17.1 µM (inactive) | 19.4 µM (inactive)
NC(=O)c1nnc2c(F)cccc2c1N | > 100 µM (inactive) | 73.3 µM (inactive) | 64.4 µM (inactive) | 92 µM | > 100 µM (inactive) | > 100 µM (inactive) | 55.1 µM (inactive) | 40 µM (inactive) | 77.3 µM (inactive) | > 100 µM (inactive) | 72.1 µM (inactive) | 21.9 µM (inactive) | – | > 100 µM (inactive) | > 100 µM (inactive) | > 100 µM (inactive) | > 100 µM (inactive) | > 100 µM (inactive) | 73.8 µM (inactive) | 27.4 µM (inactive)
CC1C(C#N)(C#N)C(C#N)=C(N)C1(C)[N+](=O)[O-] (centres undefined) | 68.2 µM (inactive) | 44.6 µM (inactive) | 58.3 µM (inactive) | 33.7 µM | > 100 µM (inactive) | 26.2 µM (inactive) | 29.9 µM (inactive) | 24.8 µM (inactive) | 45.7 µM (inactive) | 25.4 µM (inactive) | 30.6 µM (inactive) | 36.7 µM (inactive) | 43.1 µM (inactive) | > 100 µM (inactive) | > 100 µM (inactive) | 31.5 µM (inactive) | > 100 µM (inactive) | 31.2 µM (inactive) | 50.4 µM (inactive) | 51.1 µM (inactive)
CCCCCCCCC/C=C1/CC(CO)(COC(=O)C2CCCCC2)OC1=O (centres undefined) | > 100 µM (inactive) | 34 µM (inactive) | > 100 µM (inactive) | > 100 µM | 63.7 µM (inactive) | > 100 µM (inactive) | 67.5 µM (inactive) | > 100 µM (inactive) | 98.4 µM (inactive) | > 100 µM (inactive) | > 100 µM (inactive) | 63.1 µM (inactive) | > 100 µM (inactive) | > 100 µM (inactive) | > 100 µM (inactive) | – | > 100 µM (inactive) | > 100 µM (inactive) | > 100 µM (inactive) | > 100 µM (inactive)
CC(=O)O[C@H]1C(=O)[C@@]2(C)[C@H]([C@H](OC(=O)c3ccccc3)[C@]3(O)C[C@H](OC(=O)[C@H](O)[C@@H](NC(=O)OC(C)(C)C)c4ccco4)C(C)=C1C3(C)C)[C@]1(OC(C)=O)CO[C@@H]1C[C@@H]2O | 2.47 µM (inactive) | < 0.005 µM (active) | < 0.005 µM (active) | 0.00948 µM | 0.00804 µM (active) | < 0.005 µM (active) | < 0.005 µM (active) | < 0.005 µM (active) | < 0.005 µM (active) | 0.00667 µM (active) | < 0.005 µM (active) | < 0.005 µM (active) | 0.00899 µM (active) | < 0.005 µM (active) | 0.00687 µM (active) | 0.00553 µM (active) | 0.00971 µM (active) | 0.053 µM (active) | 0.0129 µM (active) | < 0.005 µM (active)
